Experimental data: patent US12202835B2, “Substituted aromatic ring-linked dioxinoquinazolines and dioxinoquinolines as kinase inhibitors” (BEIJING SCITECH-MQ PHARMACEUTICALS LIMITED, priority 2018, dated 2025)

Tests used:
Type in all cases: biochemical
MER kinase = MER kinase (Homo sapiens (Human), UniProt Q12866); assay: Assay of small molecular compounds for inhibiting the activity of MER kinase (LANCE TR-FRET)
Description: The assay of small molecular compounds for inhibiting the activity of MER kinase is based on the LANCE TR-FRET technology of Perkin Elmer Inc., and the assay method is as follows: • 1. Dilution of compounds: a total of 11 concentrations were obtained using a 3-fold gradient dilution from the highest concentration of 2500 nM (the maximum final concentration of the drug used in this assay was 2500 nM, and the minimum final concentration was 0.042 nM). • 2. 2.5 μL of the gradient-diluted compounds were taken with a transfer pipette to a 384-well plate. • 3. Addition of enzyme: 5 μL of 2×MER kinase solution (with a concentration of 1 nM) was taken with a transfer pipette to the corresponding reaction well of the 384-well plate, mixed well and pre-reacted at room temperature for 5 minutes. • 4. 2.5 μL 4× ULight-labeled Ploy GT (with a concentration of 200 nM)/ATP (with a concentration of 20 μM) mixture was taken with a transfer pipette to the corresponding reaction well of the 384-well plate. • 5. Negative control: 2.5 μL/well 4× substrate/ATP mixture and 7.5 μL 1× Kinase Assay Buffer were added to the wells of the 384-well plate.
(§1) Positive control: 2.5 μL/well 4× substrate/ATP mixture, 2.5 μL/well 1× Kinase Assay Buffer containing 4% DMSO, and 5 μL/well 2×MER kinase solution were added to the 384-well plate. The final concentration of DMSO in the reaction system was 1%. • 6. The mixture was mixed well and then centrifuged and reacted at room temperature in dark for 60 min. • 7. Termination of the enzymatic reaction: 5 μL of 4× stop solution was taken with a transfer pipette to the wells of the 384-well plate, mixed and then centrifuged, and reacted at room temperature for 5 min. • 8. Development of the reaction: 5 μL of 4× detection solution was taken with a transfer pipette to the wells of the 384-well plate for color development, and the mixture was mixed and then centrifuged and reacted at room temperature for 60 min. • 9. The 384-well plate was placed into the Envision plate reader and the signal was detected using the appropriate program. • 10. Analysis and processing of the raw data:
The drug concentrations and the corresponding inhibition rates were input into GraphPad Prism5 for calculation, and the inhibition rate of the compounds were calculated as follows: inhibition rate (%)=(reading of positive well−reading of experimental well)/(reading of positive control well−reading of negative control well)×100%. Processing with GraphPad Prism5 software yielded the corresponding IC50 values (the concentration of the compound at which 50% of the highest inhibition of the enzyme is achieved).

VEGFR-2 kinase = VEGFR-2 kinase (Homo sapiens (Human), UniProt P35968); assay: Assay of small molecular compounds for inhibiting the activity of VEGFR-2 kinase (LANCE TR-FRET); details: read-out: VEGFR2 IC50
VEGFR-2 kinase, sequence (P35968 20-1356): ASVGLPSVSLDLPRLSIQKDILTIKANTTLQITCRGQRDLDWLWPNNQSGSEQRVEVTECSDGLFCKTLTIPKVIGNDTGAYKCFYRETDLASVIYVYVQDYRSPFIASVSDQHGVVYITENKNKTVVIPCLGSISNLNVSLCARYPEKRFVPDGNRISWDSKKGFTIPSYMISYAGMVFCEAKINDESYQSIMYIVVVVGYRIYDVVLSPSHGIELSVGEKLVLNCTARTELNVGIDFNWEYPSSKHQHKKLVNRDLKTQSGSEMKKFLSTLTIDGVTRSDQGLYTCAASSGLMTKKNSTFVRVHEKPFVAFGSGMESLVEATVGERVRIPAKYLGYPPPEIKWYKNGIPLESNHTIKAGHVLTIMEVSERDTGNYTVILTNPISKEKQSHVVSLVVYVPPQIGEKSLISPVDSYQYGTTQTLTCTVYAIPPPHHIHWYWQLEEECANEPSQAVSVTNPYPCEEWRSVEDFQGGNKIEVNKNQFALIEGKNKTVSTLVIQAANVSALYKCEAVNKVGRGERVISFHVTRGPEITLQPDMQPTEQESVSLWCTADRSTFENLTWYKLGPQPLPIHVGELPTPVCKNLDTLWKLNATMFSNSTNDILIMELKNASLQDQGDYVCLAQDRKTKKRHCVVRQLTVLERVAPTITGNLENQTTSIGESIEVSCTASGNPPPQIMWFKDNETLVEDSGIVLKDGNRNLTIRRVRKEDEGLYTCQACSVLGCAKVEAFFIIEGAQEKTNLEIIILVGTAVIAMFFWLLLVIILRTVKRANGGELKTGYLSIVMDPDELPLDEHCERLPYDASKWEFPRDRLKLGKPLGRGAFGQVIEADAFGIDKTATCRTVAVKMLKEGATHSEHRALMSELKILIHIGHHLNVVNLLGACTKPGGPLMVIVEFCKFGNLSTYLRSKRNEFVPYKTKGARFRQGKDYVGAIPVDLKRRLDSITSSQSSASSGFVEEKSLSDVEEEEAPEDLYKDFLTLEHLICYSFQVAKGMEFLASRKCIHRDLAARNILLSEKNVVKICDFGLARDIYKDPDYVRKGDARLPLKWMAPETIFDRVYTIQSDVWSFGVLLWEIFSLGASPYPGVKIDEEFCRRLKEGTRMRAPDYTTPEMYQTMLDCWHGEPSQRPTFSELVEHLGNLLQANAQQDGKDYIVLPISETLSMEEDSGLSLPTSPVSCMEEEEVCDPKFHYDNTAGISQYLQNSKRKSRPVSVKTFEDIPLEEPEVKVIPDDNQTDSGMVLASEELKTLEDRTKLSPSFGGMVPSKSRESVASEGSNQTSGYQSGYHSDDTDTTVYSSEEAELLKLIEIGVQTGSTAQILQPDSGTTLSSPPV
Description: (§2) The assay is based on the LANCE TR-FRET technology of Perkin Elmer Inc., and the assay method is as follows: • 1. Dilution of compounds: a total of 11 concentrations were obtained using a 3-fold gradient dilution from the highest concentration of 2500 nM (the maximum final concentration of the drug used in this assay was 2500 nM, and the minimum final concentration was 0.042 nM). • 2. 2.5 μL of the gradient-diluted compounds were taken with a transfer pipette to a 384-well plate. • 3. Addition of enzyme: 5 μL of 2×VEGFR2 kinase solution (with a concentration of 0.5 nM) was taken with a transfer pipette to the corresponding reaction well of the 384-well plate, mixed well and pre-reacted at room temperature for 30 minutes. • 4. 2.5 μL 4× Ultra ULight™-JAK-1 (Tyr1023) Peptide (with a concentration of 200 nM)/ATP (with a concentration of 40 μM) mixture was taken with a transfer pipette to the corresponding reaction well of the 384-well plate. • 5. Negative control: 2.5 μL/well 4× substrate/ATP mixture and 7.5 μL 1× Kinase Assay Buffer were added to the wells of the 384-well plate. • 6. Positive control: 2.5 μL/well 4× substrate/ATP mixture, 2.5 μL/well 1× Kinase Assay Buffer containing 16% DMSO, and 5 μL/well 2×VEGFR-2 kinase solution were added to the 384-well plate. The final concentration of DMSO in the reaction system was 4%. • 7. The mixture was mixed well and then centrifuged and reacted at room temperature in dark for 60 min. • 8. Termination of the enzymatic reaction: 5 μL of 4× stop solution was taken with a transfer pipette to the wells of the 384-well plate, mixed and then centrifuged, and reacted at room temperature for 5 min. • 9. Development of the reaction: 5 μL of 4× detection solution was taken with a transfer pipette to the wells of the 384-well plate for color development, and the mixture was mixed and then centrifuged and reacted at room temperature for 60 min. • 10. The 384-well plate was placed into the Envision plate reader and the signal was detected using the appropriate program. • 11. Analysis and processing of the raw data: The drug concentrations and the corresponding inhibition rates were input into GraphPad Prism5 for calculation, and the inhibition rate of the compounds were calculated as follows: inhibition rate (%)=(reading of positive well−reading of experimental well)/(reading of positive control well−reading of negative control well)×100%. Processing with GraphPad Prism5 software yielded the corresponding IC50 values (the concentration of the compound at which 50% of the highest inhibition of the enzyme is achieved).

TRKA kinase = TRKA kinase (Homo sapiens (Human), UniProt P04629); assay: Assay of small molecular compounds for inhibiting the activity of TRKA kinase (LANCE TR-FRET)
TRKA kinase, sequence (P04629 33-796): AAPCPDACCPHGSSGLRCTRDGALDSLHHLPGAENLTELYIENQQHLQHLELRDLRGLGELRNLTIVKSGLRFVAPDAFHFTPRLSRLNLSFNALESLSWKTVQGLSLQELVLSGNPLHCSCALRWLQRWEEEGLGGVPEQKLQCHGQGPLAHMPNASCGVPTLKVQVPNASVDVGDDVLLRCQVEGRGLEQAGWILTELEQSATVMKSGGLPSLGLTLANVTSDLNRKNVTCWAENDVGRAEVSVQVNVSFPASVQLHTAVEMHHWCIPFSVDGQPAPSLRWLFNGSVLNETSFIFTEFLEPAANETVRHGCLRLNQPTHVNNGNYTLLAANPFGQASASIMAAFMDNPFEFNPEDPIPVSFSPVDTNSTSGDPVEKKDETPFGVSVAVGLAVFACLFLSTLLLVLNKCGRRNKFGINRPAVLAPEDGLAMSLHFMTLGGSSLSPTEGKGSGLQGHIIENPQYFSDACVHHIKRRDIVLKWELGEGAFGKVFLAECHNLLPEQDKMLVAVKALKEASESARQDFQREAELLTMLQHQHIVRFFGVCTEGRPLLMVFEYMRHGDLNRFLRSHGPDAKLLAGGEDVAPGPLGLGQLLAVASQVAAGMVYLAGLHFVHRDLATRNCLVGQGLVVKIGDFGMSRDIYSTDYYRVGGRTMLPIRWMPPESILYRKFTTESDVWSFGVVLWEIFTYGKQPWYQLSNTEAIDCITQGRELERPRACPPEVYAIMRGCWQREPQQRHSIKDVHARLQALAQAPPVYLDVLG
Description: The assay of small molecular compounds for inhibiting the activity of TRKA kinase is based on the LANCE TR-FRET technology of Perkin Elmer Inc., and the assay method is as follows: • 1. […] 2.5 μL of the gradient-diluted compounds were taken with a transfer pipette to a 384-well plate. • 3. Addition of enzyme: 5 μL of 2×TRKA kinase solution (with a concentration of 2 nM) was taken with a transfer pipette to the corresponding reaction well of the 384-well plate, mixed well and pre-reacted at room temperature for 5 minutes. • 4. 2.5 μL 4× Ultra ULight-labeled TK Peptide (with a concentration of 400 nM)/ATP (with a concentration of 40 μM) mixture was taken with a transfer pipette to the corresponding reaction well of the 384-well plate. • 5. Negative control: 2.5 μL/well 4× substrate/ATP mixture and 7.5 μL 1× Kinase Assay Buffer were added to the wells of the 384-well plate.
as §1, with “2×TRKA” for “2×MER”, “program.” for “program. • 10. Analysis and processing of the raw data:”

c-MET kinase = c-MET kinase (Homo sapiens (Human), UniProt P08581); assay: Assay of small molecular compounds for inhibiting the activity of c-MET kinase (LANCE TR-FRET); details: read-out: CMET IC50
c-MET kinase, sequence (P08581 25-1390): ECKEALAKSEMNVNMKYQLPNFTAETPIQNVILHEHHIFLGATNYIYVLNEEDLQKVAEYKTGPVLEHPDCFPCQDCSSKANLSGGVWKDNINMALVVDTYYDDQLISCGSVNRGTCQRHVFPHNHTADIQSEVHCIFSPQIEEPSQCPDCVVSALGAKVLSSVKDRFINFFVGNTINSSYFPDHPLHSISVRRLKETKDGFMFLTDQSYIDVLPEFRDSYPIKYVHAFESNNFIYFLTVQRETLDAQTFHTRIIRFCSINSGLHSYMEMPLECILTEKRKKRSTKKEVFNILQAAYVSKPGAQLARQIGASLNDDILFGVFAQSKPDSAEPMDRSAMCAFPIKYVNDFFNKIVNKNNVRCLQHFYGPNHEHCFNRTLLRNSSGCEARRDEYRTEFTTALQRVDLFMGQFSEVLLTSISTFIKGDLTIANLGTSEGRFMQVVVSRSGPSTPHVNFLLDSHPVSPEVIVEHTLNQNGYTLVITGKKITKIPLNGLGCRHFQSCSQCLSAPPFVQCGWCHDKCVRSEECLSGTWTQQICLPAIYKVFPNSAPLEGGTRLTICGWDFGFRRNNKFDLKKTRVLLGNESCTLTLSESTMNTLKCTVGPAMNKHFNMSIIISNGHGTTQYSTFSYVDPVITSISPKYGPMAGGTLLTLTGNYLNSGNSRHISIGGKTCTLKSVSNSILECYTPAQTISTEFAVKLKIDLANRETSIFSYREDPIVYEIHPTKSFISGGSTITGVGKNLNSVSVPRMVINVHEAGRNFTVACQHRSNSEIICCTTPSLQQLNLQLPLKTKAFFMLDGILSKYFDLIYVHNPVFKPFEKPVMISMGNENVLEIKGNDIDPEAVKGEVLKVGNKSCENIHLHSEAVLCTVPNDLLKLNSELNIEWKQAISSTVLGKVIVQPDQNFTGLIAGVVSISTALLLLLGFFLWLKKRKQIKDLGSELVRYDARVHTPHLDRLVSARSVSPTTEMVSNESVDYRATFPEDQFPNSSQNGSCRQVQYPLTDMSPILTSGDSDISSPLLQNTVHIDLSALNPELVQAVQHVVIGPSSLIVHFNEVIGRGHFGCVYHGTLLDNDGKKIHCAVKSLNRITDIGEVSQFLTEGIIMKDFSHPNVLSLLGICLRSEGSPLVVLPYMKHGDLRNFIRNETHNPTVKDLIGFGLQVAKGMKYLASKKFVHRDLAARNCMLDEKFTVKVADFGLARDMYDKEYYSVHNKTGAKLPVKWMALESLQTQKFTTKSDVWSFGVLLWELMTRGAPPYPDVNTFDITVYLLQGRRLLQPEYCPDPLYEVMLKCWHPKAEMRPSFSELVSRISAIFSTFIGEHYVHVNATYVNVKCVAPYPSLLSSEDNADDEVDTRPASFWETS
Description: as §2, with “2×c-MET” for “2×VEGFR2”, “2” for “0.5”, “5” for “30”, “400” for “200”, “2× c-MET” for “2×VEGFR-2”, “data: • 12.” for “data:”

MER kinase, sequence (Q12866 21-999): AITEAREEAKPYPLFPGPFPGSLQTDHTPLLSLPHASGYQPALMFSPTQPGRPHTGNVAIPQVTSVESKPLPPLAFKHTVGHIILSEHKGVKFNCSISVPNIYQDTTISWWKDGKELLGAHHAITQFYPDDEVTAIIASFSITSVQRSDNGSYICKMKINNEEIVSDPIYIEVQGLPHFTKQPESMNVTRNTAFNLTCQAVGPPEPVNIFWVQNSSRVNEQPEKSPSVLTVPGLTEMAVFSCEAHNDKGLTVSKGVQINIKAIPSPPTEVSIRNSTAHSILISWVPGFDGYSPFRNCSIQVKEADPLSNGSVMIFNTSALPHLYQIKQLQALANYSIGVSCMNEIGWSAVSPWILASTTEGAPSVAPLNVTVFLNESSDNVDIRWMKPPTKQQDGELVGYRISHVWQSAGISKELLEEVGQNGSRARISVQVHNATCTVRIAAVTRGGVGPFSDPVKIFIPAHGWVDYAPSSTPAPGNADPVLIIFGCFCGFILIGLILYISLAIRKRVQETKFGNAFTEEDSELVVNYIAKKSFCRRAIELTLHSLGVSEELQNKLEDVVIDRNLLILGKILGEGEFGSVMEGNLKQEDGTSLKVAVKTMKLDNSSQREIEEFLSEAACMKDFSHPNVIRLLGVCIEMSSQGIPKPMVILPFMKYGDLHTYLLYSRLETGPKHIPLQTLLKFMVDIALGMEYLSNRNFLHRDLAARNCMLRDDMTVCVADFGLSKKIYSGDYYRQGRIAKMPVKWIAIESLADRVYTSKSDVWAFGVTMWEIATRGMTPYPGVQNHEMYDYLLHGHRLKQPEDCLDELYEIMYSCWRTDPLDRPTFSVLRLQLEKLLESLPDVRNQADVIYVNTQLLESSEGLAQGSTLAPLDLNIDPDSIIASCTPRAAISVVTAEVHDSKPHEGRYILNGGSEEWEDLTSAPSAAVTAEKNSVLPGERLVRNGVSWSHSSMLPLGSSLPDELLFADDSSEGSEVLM

Structure (SMILES)	IC50 (MER kinase)	IC50 (VEGFR-2 kinase)	IC50 (TRKA kinase)	IC50 (c-MET kinase)
COc1cc2nccc(Oc3ccc(NC(=O)c4cn(CC(=O)OC(C)(C)C)c(=O)n(-c5ccc(F)cc5)c4=O)cc3F)c2c2c1OCCO2 [Example 103, tert-butyl 2-(5-((3-fluoro-4-((5-methoxy-2,3-dihydro-[1,4]dioxino[2,3-f]quinolin-10-yl)oxy)phenyl)carbamoyl)-3-(4-fluorophenyl)-2,4-dioxo-3,4-dihydropyrimidin-1(2H)-yl)acetate]	50 to 500 nM	500 to 5000 nM		
COc1cc2nccc(Oc3ccc(NC(=O)c4cn(C(C)C)c(=O)n(-c5ccccc5F)c4=O)cc3F)c2c2c1OCCO2 [Example 110, N-(3-fluoro-4-((5-methoxy-2,3-dihydro-[1,4]dioxino[2,3-f]quinolin-10-yl)oxy)phenyl)-3-(2-fluorophenyl)-1-isopropyl-2,4-dioxo-1,2,3,4-tetrahydropyrimidine-5-carboxamide]	≤ 50 nM		500 to 5000 nM	≤ 50 nM
COc1cc2nccc(Oc3ccc(NC(=O)c4cn(C(C)C)c(=O)n(Cc5ccc(F)cc5)c4=O)cc3F)c2c2c1OCCO2 [Example 111, N-(3-fluoro-4-((5-methoxy-2,3-dihydro-[1,4]dioxino[2,3-f]quinolin-10-yl)oxy)phenyl)-3-(4-fluorobenzyl)-1-isopropyl-2,4-dioxo-1,2,3,4-tetrahydropyrimidine-5-carboxamide]	50 to 500 nM		500 to 5000 nM	500 to 5000 nM
COc1cc2nccc(Oc3cc(Cl)c(NC(=O)c4cn(C(C)C)c(=O)n(-c5ccc(F)cc5)c4=O)cc3F)c2c2c1OCCO2 [Example 118, N-(2-chloro-5-fluoro-4-((5-methoxy-2,3-dihydro-[1,4]dioxino[2,3-f]quinolin-10-yl)oxy)phenyl)-3-(4-fluorophenyl)-1-isopropyl-2,4-dioxo-1,2,3,4-tetrahydropyrimidine-5-carboxamide]	50 to 500 nM		50 to 500 nM	50 to 500 nM

Continued, values first:

IC50 (MER kinase)	IC50 (VEGFR-2 kinase)	IC50 (TRKA kinase)	IC50 (c-MET kinase)	Structure (SMILES)
50 to 500 nM		500 to 5000 nM	50 to 500 nM	COc1cc2nccc(Oc3ccc(NC(=O)c4cn(C(C)C)c(=O)n(-c5ccc(Cl)cc5)c4=O)cc3F)c2c2c1OCCO2 [Example 108, N-(3-fluoro-4-((5-methoxy-2,3-dihydro-[1,4]dioxino[2,3-f]quinolin-10-yl)oxy)phenyl)-3-(4-chlorophenyl)-1-isopropyl-2,4-dioxo-1,2,3,4-tetrahydropyrimidine-5-carboxamide]
500 to 5000 nM		50 to 500 nM	≤ 50 nM	Cn1cc(C(=O)Nc2ccc(Oc3ccnc4cc(OCCCC#N)c5c(c34)OCCO5)cc2Cl)c(=O)n(-c2ccc(F)cc2)c1=O [Example 133, N-(2-chloro-4-((5-(3-cyanopropoxy)-2,3-dihydro-[1,4]dioxino[2,3-f]quinolin-10-yl)oxy)phenyl)-3-(4-fluorophenyl)-1-methyl-2,4-dioxo-1,2,3,4-tetrahydropyrimidine-5-carboxamide]
	500 to 5000 nM	500 to 5000 nM	≤ 50 nM	Cn1cc(C(=O)Nc2ccc(Oc3ccnc4cc(OC5CC5)c5c(c34)OCCO5)cc2)c(=O)n(-c2ccc(F)cc2)c1=O [Example 151, N-(4-((5-cyclopropyloxy-2,3-dihydro-[1,4]dioxino[2,3-f]quinolin-10-yl)oxy)phenyl)-3-(4-fluorophenyl)-1-methyl-2,4-dioxo-1,2,3,4-tetrahydropyrimidine-5-carboxamide]
	> 5000 nM	> 5000 nM	≤ 50 nM	CCn1cc(C(=O)Nc2ccc(Oc3ccnc4cc(OC5CC5)c5c(c34)OCCO5)cc2)c(=O)n(-c2ccc(F)cc2)c1=O [Example 152, N-(4-((5-cyclopropyloxy-2,3-dihydro-[1,4]dioxino[2,3-f]quinolin-10-yl)oxy)phenyl)-3-(4-fluorophenyl)-1-ethyl-2,4-dioxo-1,2,3,4-tetrahydropyrimidine-5-carboxamide]
